Assays:
[1] = system: HIF1a protein in H9c2 rat cardiomyocytes; experiment: Cell-based HIF-alpha stabilization assay (inhibition of PHD in cells); conditions: Rattus norvegicus, H9c2, 24 h, 24 hrs compound incubation, HIF1a protein by ELISA, read-out: Inhibition of PHD in cells (pEC50) (converted)
How it was run: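 Rat H9c2 cardiomyocytes, cultured 24 h, were treated 24 h with an 11-point serial dilution of compound. HIF1a in whole-cell lysates was quantified by ELISA as % of the maximal desferrioxamine response. EC50 came from curve fitting; EC50pos is the concentration reaching 50% of the desferrioxamine maximum.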

[2] = target: PHD2 enzyme (residues 181-417) (Homo sapiens (Human), UniProt Q9GZT9); experiment: Inhibition of PHD enzyme (LC/MS peptide hydroxylation assay); format: biochemical; conditions: PHD2 (residues 181-417) 5 nM, 60 min pre-incubation; -log(IC50), IC50 molar
How it was run: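 PHD2 (5 nM final) preincubated with inhibitor 60 min at RT in 50 mM HEPES, 50 mM KCl, 0.5 mM TCEP, 2 uM FeCl2, 0.1 mg/ml BSA, pH 7.3. Reaction started with biotin-peptide (1 uM), 2-oxoglutarate (2 uM), ascorbate (1 mM), quenched at 60 min; hydroxylated product by LC/MS, reported as pIC50.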

PHD2 enzyme (residues 181-417), sequence (Q9GZT9 181-417): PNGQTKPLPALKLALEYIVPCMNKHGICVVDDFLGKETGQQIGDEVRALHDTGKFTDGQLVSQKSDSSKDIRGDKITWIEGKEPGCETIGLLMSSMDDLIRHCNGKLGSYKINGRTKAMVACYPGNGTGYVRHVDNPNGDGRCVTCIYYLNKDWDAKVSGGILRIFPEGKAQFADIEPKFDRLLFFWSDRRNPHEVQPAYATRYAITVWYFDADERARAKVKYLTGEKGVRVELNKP

| Compound | EC50 [1] [µM] | PHD Inhibition (pIC50) [2] |
| --- | --- | --- |
| COCCCNC(=O)c1ccc(-n2ncc(-c3ccc(C#N)cc3OC)c2O)nc1 [Example 231, 6-(4-(4-cyano-2-methoxyphenyl)-5-hydroxy-1H-pyrazol-1-yl)-N-(3-methoxypropyl)nicotinamide] | 0.372 | 6.95 |
| COc1cc(C#N)ccc1-c1cnn(-c2ccc(C(=O)NC3CC3)cn2)c1O [Example 232, 6-(4-(4-cyano-2-methoxyphenyl)-5-hydroxy-1H-pyrazol-1-yl)-N-cyclopropylnicotinamide] | 0.339 | 7.01 |
| COc1cc(-c2cnn(-c3ccc(C(=O)NC4(C5CCOCC5)CC4)cn3)c2O)ccn1 [Example 233, 6-(5-hydroxy-4-(2-methoxypyridin-4-yl)-1H-pyrazol-1-yl)-N-(1-(tetrahydro-2H-pyran-4-yl)cyclopropyl)nicotinamide] | 0.589 | 6.7 |
| COCCCN(C)C(=O)c1ccc(-n2ncc(-c3ccc(C#N)cc3)c2O)nc1 [Example 234, 6-(4-(4-cyanophenyl)-5-hydroxy-1H-pyrazol-1-yl)-N-(3-methoxypropyl)-N-methylnicotinamide] | 2.24 | 7.12 |
| COCCCCNC(=O)c1ccc(-n2ncc(-c3ccc(C#N)cc3)c2O)nc1 [Example 235, 6-(4-(4-cyanophenyl)-5-hydroxy-1H-pyrazol-1-yl)-N-(4-methoxybutyl)nicotinamide] | 0.269 | 7.43 |
| N#Cc1ccc(-c2cnn(-c3ccc(C(=O)NCCOC(F)(F)F)cn3)c2O)cc1 [Example 236, 6-(4-(4-cyanophenyl)-5-hydroxy-1H-pyrazol-1-yl)-N-(2-(trifluoromethoxy)ethyl)nicotinamide] | 0.589 | 7.51 |
| N#Cc1ccc(-c2cnn(-c3ccc(C(=O)NC4CC5(COC5)C4)cn3)c2O)cc1 [Example 237, 6-(4-(4-cyanophenyl)-5-hydroxy-1H-pyrazol-1-yl)-N-(2-oxaspiro[3.3]heptan-6-yl)nicotinamide] | 0.447 | 7.54 |
| COCCCCNC(=O)c1ccc(-n2ncc(-c3ccc(C#N)cc3OC)c2O)nc1 [Example 238, 6-(4-(4-cyano-2-methoxyphenyl)-5-hydroxy-1H-pyrazol-1-yl)-N-(4-methoxybutyl)nicotinamide] | 0.468 | 6.85 |
| CN(C(=O)c1ccc(-n2ncc(-c3ccc(C#N)cc3)c2O)nc1)C1CC1 [Example 239, 6-(4-(4-cyanophenyl)-5-hydroxy-1H-pyrazol-1-yl)-N-cyclopropyl-N-methylnicotinamide] | 1.7 | 7.12 |
| N#Cc1ccc(-c2cnn(-c3ccc(C(=O)NCCC4CCCO4)cn3)c2O)cc1 (centres unmarked) [Example 241, 6-(4-(4-cyanophenyl)-5-hydroxy-1H-pyrazol-1-yl)-N-(2-(tetrahydrofuran-2-yl)ethyl)nicotinamide] | 0.437 | 7.51 |
| COc1cc(-c2cnn(-c3ccc(C(=O)N(C)C4CC4)cn3)c2O)ccn1 [Example 243, N-cyclopropyl-6-(5-hydroxy-4-(2-methoxypyridin-4-yl)-1H-pyrazol-1-yl)-N-methylnicotinamide] | 4.17 | 6.9 |
| Cc1cc(C#N)ccc1-c1cnn(-c2ccc(C(=O)NC3CC4(COC4)C3)cn2)c1O [Example 244, 6-(4-(4-cyano-2-methylphenyl)-5-hydroxy-1H-pyrazol-1-yl)-N-(2-oxaspiro[3.3]heptan-6-yl)nicotinamide] | 0.24 | 8.4 |
| Cc1cc(C#N)ccc1-c1cnn(-c2ccc(C(=O)NCCC3CCCO3)cn2)c1O (centres unmarked) [Example 245, 6-(4-(4-cyano-2-methylphenyl)-5-hydroxy-1H-pyrazol-1-yl)-N-(2-(tetrahydrofuran-2-yl)ethyl)nicotinamide] | 0.24 | 8.4 |
| Cc1cc(C#N)ccc1-c1cnn(-c2ccc(C(=O)N(C)C3CC3)cn2)c1O [Example 246, 6-(4-(4-cyano-2-methylphenyl)-5-hydroxy-1H-pyrazol-1-yl)-N-cyclopropyl-N-methylnicotinamide] | 0.407 | 7.8 |
| Cc1cc(C#N)ccc1-c1cnn(-c2ccc(C(=O)NCC3CCC(F)(F)CC3)cn2)c1O [Example 247, 6-(4-(4-cyano-2-methylphenyl)-5-hydroxy-1H-pyrazol-1-yl)-N-((4,4-difluorocyclohexyl)methyl)nicotinamide] | 0.813 | 8.2 |
| COCC1CCN(C(=O)c2ccc(-n3ncc(-c4ccc(C#N)cc4C)c3O)nc2)CC1 [Example 248, 4-(5-hydroxy-1-(5-(4-(methoxymethyl)piperidine-1-carbonyl)pyridin-2-yl)-1H-pyrazol-4-yl)-3-methylbenzonitrile] | 0.251 | 8.3 |

| Compound | EC50 [1] [µM] | PHD Inhibition (pIC50) [2] |
| --- | --- | --- |
| COC1CCN(C(=O)c2ccc(-n3ncc(-c4ccc(C#N)cc4C)c3O)nc2)CC1 [Example 249, 4-(5-hydroxy-1-(5-(4-methoxypiperidine-1-carbonyl)pyridin-2-yl)-1H-pyrazol-4-yl)-3-methylbenzonitrile] | 0.275 | 8.3 |
| Cc1cc(C#N)ccc1-c1cnn(-c2ccc(C(=O)NCCOC(F)(F)F)cn2)c1O [Example 250, 6-(4-(4-cyano-2-methylphenyl)-5-hydroxy-1H-pyrazol-1-yl)-N-(2-(trifluoromethoxy)ethyl)nicotinamide] | 0.457 | 8 |
| COCCCN(C)C(=O)c1ccc(-n2ncc(-c3ccc(C#N)cc3C)c2O)nc1 [Example 251, 6-(4-(4-cyano-2-methylphenyl)-5-hydroxy-1H-pyrazol-1-yl)-N-(3-methoxypropyl)-N-methylnicotinamide] | 0.324 | 8.2 |
| COCC1CCN(C(=O)c2ccc(-n3ncc(-c4ccc(C#N)cc4C)c3O)nc2)C1 (centres unmarked) [Example 252, 4-(5-hydroxy-1-(5-(3-(methoxymethyl)pyrrolidine-1-carbonyl)pyridin-2-yl)-1H-pyrazol-4-yl)-3-methylbenzonitrile] | 0.263 | 8.3 |
| COc1cc(-c2cnn(-c3ccc(C(=O)NCC4CCOCC4)cn3)c2O)ccc1C#N [Example 253, 6-(4-(4-cyano-3-methoxyphenyl)-5-hydroxy-1H-pyrazol-1-yl)-N-((tetrahydro-2H-pyran-4-yl)methyl)nicotinamide] | 5.62 | 8.3 |
| COc1cc(-c2cnn(-c3ccc(C(=O)NCC4CCOCC4)cn3)c2O)c(F)cn1 [Example 254, 6-(4-(5-fluoro-2-methoxypyridin-4-yl)-5-hydroxy-1H-pyrazol-1-yl)-N-((tetrahydro-2H-pyran-4-yl)methyl)nicotinamide] | 2.75 | 8 |
| COc1nccc(-c2cnn(-c3ccc(C(=O)NCC4CCOCC4)cn3)c2O)c1OC [Example 255, 6-(4-(2,3-dimethoxypyridin-4-yl)-5-hydroxy-1H-pyrazol-1-yl)-N-((tetrahydro-2H-pyran-4-yl)methyl)nicotinamide] | 1.45 | 7.6 |
| N#Cc1ccc(-c2cnn(-c3ccc(C(=O)N[C@H]4CC[C@@H](O)C4)cn3)c2O)cc1 [Example 258, 6-(4-(4-cyanophenyl)-5-hydroxy-1H-pyrazol-1-yl)-N-((1s,3r)-3-hydroxycyclopentyl)nicotinamide] | 0.813 | 7.44 |
| N#Cc1ccc(-c2cnn(-c3ccc(C(=O)N[C@H]4CC[C@H](O)C4)cn3)c2O)cc1 [Example 259, 6-(4-(4-cyanophenyl)-5-hydroxy-1H-pyrazol-1-yl)-N-((1s,3s)-3-hydroxycyclopentyl)nicotinamide] | 1 | 7.39 |
| CC1(CNC(=O)c2ccc(-n3ncc(-c4ccc(C#N)cc4)c3O)nc2)COC1 [Example 261, 6-(4-(4-cyanophenyl)-5-hydroxy-1H-pyrazol-1-yl)-N-((3-methyloxetan-3-yl)methyl)nicotinamide] | 1.12 | 7.39 |
| CC1CC1NC(=O)c1ccc(-n2ncc(-c3ccc(C#N)cc3)c2O)nc1 (centres unmarked) [Example 262, 6-(4-(4-cyanophenyl)-5-hydroxy-1H-pyrazol-1-yl)-N-(2-methylcyclopropyl)nicotinamide] | 0.525 | 7.38 |
| N#Cc1ccc(-c2cnn(-c3ccc(C(=O)NCC4(F)CCCCC4)cn3)c2O)cc1 [Example 263, 6-(4-(4-cyanophenyl)-5-hydroxy-1H-pyrazol-1-yl)-N-((1-fluorocyclohexyl)methyl)nicotinamide] | 1.23 | 7.22 |
| N#Cc1ccc(-c2cnn(-c3ccc(C(=O)NCC4CC(F)(F)C4)cn3)c2O)cc1 [Example 264, 6-(4-(4-cyanophenyl)-5-hydroxy-1H-pyrazol-1-yl)-N-((3,3-difluorocyclobutyl)methyl)nicotinamide] | 1.62 | 6.99 |
| N#Cc1ccc(-c2cnn(-c3ccc(C(=O)NC4CC(F)(F)C4)cn3)c2O)cc1 [Example 265, 6-(4-(4-cyanophenyl)-5-hydroxy-1H-pyrazol-1-yl)-N-(3,3-difluorocyclobutyl)nicotinamide] | 6.61 | 6.77 |
| CCNC(=O)c1ccc(-n2ncc(-c3ccc(C#N)cc3)c2O)nc1 [Example 266, 6-(4-(4-cyanophenyl)-5-hydroxy-1H-pyrazol-1-yl)-N-ethylnicotinamide] | 1.91 | 7.23 |
